Structures can show the parent of a compound that is named as a salt.

By IC50 is commonly meant the concentration needed to halve the response being measured.

The subject of assay [1] is Primary human T-cells. The experiment in a line: Primary Human T-Cell Proliferation Assay Stimulated with IL-2 (CellTiter-Glo). The settings on record: Homo sapiens, T-cell, primary human T-cells stimulated with IL-2, proliferation; read-out: IC50, Example 42. The format is cell-based. The procedure, abridged: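 Peripheral blood T-cells pre-activated with anti-CD3/anti-CD28 and IL-2 were washed free of IL-2, then cultured with compound plus IL-2 for 72 hours at 37° C, duplicate wells. Viability read as ATP by CellTiter-Glo luminescence; IC50 reported.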
(In general: In ATP-based viability assays light output follows the ATP content of the culture.)

The test system of assay [2] is IL-4 stimulated expression of CD23 in human Ramos B cells (JAK-1 and JAK-3). The assay is described as follows: Assay for Ramos B-Cell Line Stimulated with IL-4 (CD23 upregulation, FACS). The settings on record: Homo sapiens, Ramos, Ramos B cells stimulated with IL-4, CD23 expression by FACS; read-out: IC50, Example 41. The format is cell-based. In short, it runs like this:
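Log-phase Ramos cells, 1 h compound pre-incubation at 37 °C; IL-4 50 units/mL final, 20-24 h; CD23-PE stain, FACS; IC50.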
For orientation: Flow cytometry measures light scatter and fluorescence of single cells or particles in a stream.

With `COc1ccc(CN2C(=O)C(C)Sc3ccc(Nc4nc(Nc5ccc(S(N)(=O)=O)cc5)ncc4F)cc32)cc1` (racemic) [Compound V-10, (R/S)-N2-(4-Aminosulphonylphenyl)-5-fluoro-N4-[2-methyl-3-oxo-4-(4-methoxybenzyl)-benzo[1,4]thiazin-6-yl]-2,4-pyrimidinediamine], the IC50 in assay [1] was determined as 8270 nM; in assay [2], 261 nM.
In the same order, the values of `N#CCN1C(=O)COc2ccc(Nc3nc(Nc4ccc(S(N)(=O)=O)cc4)ncc3F)cc21` [Compound V-6, N2-(4-Aminosulphonylphenyl)-5-fluoro-N4-(3-oxo-4-cyanomethyl-benz[1,4]oxazin-6-yl]-2,4-pyrimidinediamine] are 70.8 nM and 21.9 nM.
As for `N#CCN1C(=O)COc2ccc(Nc3nc(Nc4cccc(S(N)(=O)=O)c4)ncc3F)cc21` [Compound V-7, N2-(3-Aminosulphonylphenyl)-5-fluoro-N4-(3-oxo-4-cyanomethyl-benz[1,4]oxazin-6-yl]-2,4-pyrimidinediamine], the IC50 in assay [1] amounted to 127 nM; in assay [2], 58.8 nM.
For the compound `Cc1ccc(Nc2ncc(F)c(Nc3ccc4c(c3)N(CC#N)C(=O)CO4)n2)cc1S(N)(=O)=O` [Compound V-8, N2-(3-Aminosulphonyl-4-methylphenyl)-5-fluoro-N4-[3-oxo-4-cyanomethyl-benz[1,4]oxazin-6-yl]-2,4-pyrimidinediamine], the IC50 in assay [1] worked out at 225 nM; in assay [2] it was 29.1 nM.
For `N#CCN1C(=O)CSc2ccc(Nc3nc(Nc4ccc(S(N)(=O)=O)cc4)ncc3F)cc21` [Compound V-11, N2-(4-Aminosulphonylphenyl)-5-fluoro-N4-(3-oxo-4-cyanomethyl-benzo[1,4]thiazin-6-yl)-2,4-pyrimidinediamine] the same measures were 795 nM and 69.8 nM.
For `N#CCN1C(=O)CSc2ccc(Nc3nc(Nc4cccc(S(N)(=O)=O)c4)ncc3F)cc21` [Compound V-12, N2-(3-Aminosulphonylphenyl)-5-fluoro-N4-(3-oxo-4-cyanomethyl-benzo[1,4]thiazin-6-yl)-2,4-pyrimidinediamine] the same measures were 957 nM and 188 nM.
For `Cc1ccc(Nc2ncc(F)c(Nc3ccc4c(c3)N(CC#N)C(=O)CS4)n2)cc1S(N)(=O)=O` [Compound V-13, N2-(3-Aminosulphonyl4-methylphenyl)-5-fluoro-N4-(3-oxo-4-cyanomethyl-benzo[1,4]thiazin-6-yl)-2,4-pyrimidinediamine] the same measures were 468 nM and 52.9 nM.
Regarding `NS(=O)(=O)c1ccc(Nc2ncc(F)c(NCCc3ccc(-n4ccnc4)cc3)n2)cc1` [III-90, N2-(4-Aminosulfonylphenyl)-5-fluoro-N4-[4-(1-imidazolyl)phenethyl]-2,4-pyrimidinediamine], the IC50 in assay [1] was determined as 468 nM; in assay [2], 358 nM.
In the same order, the values of `NS(=O)(=O)c1cccc(Nc2ncc(F)c(Nc3ccc(Cc4ccncc4)cc3)n2)c1` [III-128, N2-(3-Aminosulfonylphenyl)-5-fluoro-N4-[4-(4-pyridylmethyl)phenyl]-2,4-pyrimidinediamine p-Toluenesulfonic Acid Salt] are 139 nM and 145 nM.
For `NS(=O)(=O)c1cccc(Nc2ncc(F)c(Nc3cccc(-c4cnco4)c3)n2)c1` [IV-1, N2-(3-Aminosulfonylphenyl)-5-fluoro-N4-[3-(1,3-oxazol-5-yl)phenyl]-2,4-pyrimidinediamine] the same measures were 287 nM and 73.6 nM.
For `Cc1ccc(Nc2ncc(F)c(Nc3cccc(-c4cnco4)c3)n2)cc1S(N)(=O)=O` [IV-2, N2-(3-Aminosulfonyl-4-methylphenyl)-5-fluoro-N4-[3-(1,3-oxazol-5-yl)phenyl]-2,4-pyrimidinediamine] the same measures were 362 nM and 80 nM.
As to `NS(=O)(=O)c1cccc(Nc2ncc(F)c(Nc3ccc(-c4cnco4)cc3)n2)c1` [IV-5, N2-(3-Aminosulfonylphenyl)-5-fluoro-N4-[4-(1,3-oxazol-5-yl)phenyl]-2,4-pyrimidinediamine], the IC50 in assay [1] is 116 nM; in assay [2], 97.7 nM.
In the same order, the values of `Cc1ccc(Nc2ncc(F)c(Nc3ccc(-c4cnco4)cc3)n2)cc1S(N)(=O)=O` [IV-6, N2-(3-Aminosulfonyl-4-methylphenyl)-5-fluoro-N4-[4-(1,3-oxazol-5-yl)phenyl]-2,4-pyrimidinediamine] are 132 nM and 103 nM.
In the same order, the values of `C#CCn1ccc2cc(Nc3nc(Nc4ccc(C)c(S(N)(=O)=O)c4)ncc3F)ccc21` [IX-1, N2-(3-Aminosulfonyl-4-methylphenyl)-5-fluoro-N4-[1-(propyn-3-yl)indol-5-yl]-2,4-pyrimidinediamine] are 581 nM and 89.3 nM.
For `C#CCn1ccc2cc(Nc3nc(Nc4cccc(S(N)(=O)=O)c4)ncc3F)ccc21` [IX-2, N2-(3-Aminosulfonylphenyl)-5-fluoro-N4-[1-(propyn-3-yl)indol-5-yl]-2,4-pyrimidinediamine] the same measures were 282 nM and 79.5 nM.
On to `Cc1ccc(Nc2ncc(F)c(Nc3ccc4c(CC#N)c[nH]c4c3)n2)cc1S(N)(=O)=O` [IX-11, N2-(3-Aminosulfonyl-4-methylphenyl)-N4-(3-cyanomethyl-1H-indol-6-yl)-5-fluoro-2,4-pyrimidinediamine], for which the IC50 in assay [1] amounted to 215 nM; in assay [2], 115 nM.
For `N#CCc1c[nH]c2cc(Nc3nc(Nc4cccc(S(N)(=O)=O)c4)ncc3F)ccc12` [IX-12, N2-(3-Aminosulfonylphenyl)-N4-(3-cyanomethyl-1H-indol-6-yl)-5-fluoro-2,4-pyrimidinediamine] the same measures were 117 nM and 97.3 nM.
For `N#CCc1c[nH]c2ccc(Nc3nc(Nc4cccc(S(N)(=O)=O)c4)ncc3F)cc12` [IX-13, N2-(3-Aminosulfonylphenyl)-N4-(3-cyanomethyl-1H-indol-5-yl)-5-fluoro-2,4-pyrimidinediamine] the same measures were 430 nM and 138 nM.
In the case of `Cc1ccc(Nc2ncc(F)c(Nc3ccc4[nH]cc(CC#N)c4c3)n2)cc1S(N)(=O)=O` [IX-14, N2-(3-Aminosulfonyl-4-methylphenyl)-N4-(3-cyanomethyl-1H-indol-5-yl)-5-fluoro-2,4-pyrimidinediamine], the results for the IC50 in assay [1] and in assay [2] were 656 nM and 57.4 nM, respectively.
For `N#CCc1c[nH]c2c(Nc3nc(Nc4cccc(S(N)(=O)=O)c4)ncc3F)cccc12` [IX-15, N2-(3-Aminosulfonylphenyl)-N4-(3-cyanomethyl-1H-indol-7-yl)-5-fluoro-2,4-pyrimidinediamine] the same measures were 157 nM and 217 nM.
In the same order, the values of `Cc1ccc(Nc2ncc(F)c(Nc3cccc4c(CC#N)c[nH]c34)n2)cc1S(N)(=O)=O` [IX-16, N2-(3-Aminosulfonyl-4-methylphenyl)-N4-(3-cyanomethyl-1H-indol-7-yl)-5-fluoro-2,4-pyrimidinediamine] are 223 nM and 210 nM.
For `NS(=O)(=O)c1cccc(Nc2ncc(F)c(Nc3ccc(C(=O)N4CCSCC4)cc3)n2)c1` [IX-34, N2-(3-Aminosulfonylphenyl)-5-fluoro-N4-[4-(4-thiomorpholinyl)carbonylphenyl]-2,4-pyrimidinediamine] the same measures were 576 nM and 582 nM.
Turning to `Cc1ccc(Nc2ncc(F)c(Nc3ccc(C(=O)N4CCSCC4)cc3)n2)cc1S(N)(=O)=O` [IX-35, N2-(3-Aminosulfonyl-4-methylphenyl)-5-fluoro-N4-[4-(4-thiomorpholinyl)carbonylphenyl]-2,4-pyrimidinediamine], the results for the half-maximal inhibitory concentration (IC50) in assay [1] and in assay [2] were 866 nM and 455 nM, respectively.
In the same order, the values of `COc1cc(Nc2nc(Nc3ccc(C)c(S(N)(=O)=O)c3)ncc2F)ccc1Cl` [VI-5, N2-(3-Aminosulfonyl-4-methylphenyl)-N4-(4-chloro-3-methoxyphenyl)-5-fluoro-2,4-pyrimidinediamine] are 718 nM and 40.5 nM.
In the same order, the values of `Cc1ccc(Nc2ncc(F)c(Nc3ccc(Cl)c(Cl)c3)n2)cc1S(N)(=O)=O` [VI-6, N2-(3-Aminosulfonyl-4-methylphenyl)-N4-(3,4-dichlorophenyl)-5-fluoro-2,4-pyrimidinediamine] are 1450 nM and 37.5 nM.
For `COc1cc(Nc2nc(Nc3ccc(Cl)c(S(N)(=O)=O)c3)ncc2F)ccc1Cl` [VI-11, N2-(3-Aminosulfonyl-4-chlorophenyl)-N4-(4-chloro-3-methoxyphenyl)-5-fluoro-2,4-pyrimidinediamine] the same measures were 4620 nM and 259 nM.
`COc1ccc(Nc2nc(Nc3cc(Cl)c(C)c(S(N)(=O)=O)c3)ncc2F)cc1Cl` [VI-13, N2-(3-Aminosulfonyl-5-chloro-4-methylphenyl)-N4-(3-chloro-4-methoxyphenyl)-5-fluoro-2,4-pyrimidinediamine]: the IC50 in assay [1] came out at 1350 nM; in assay [2] it was 96.5 nM.
In the case of `COc1ccc(Nc2nc(Nc3cc(C)c(F)c(S(N)(=O)=O)c3)ncc2F)cc1Cl` [VI-15, N2-(3-Aminosulfonyl-4-fluoro-5-methylphenyl)-N4-(3-chloro-4-methoxyphenyl)-5-fluoro-2,4-pyrimidinediamine], the IC50 in assay [1] came out at 469 nM; in assay [2], 45 nM.
For `COc1ccc(Nc2nc(Nc3cc(C)c(Cl)c(S(N)(=O)=O)c3)ncc2F)cc1Cl` [VI-17, N2-(3-Aminosulfonyl-4-chloro-5-methylphenyl)-N4-(3-chloro-4-methoxyphenyl)-5-fluoro-2,4-pyrimidinediamine] the same measures were 244 nM and 43.4 nM.
